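In this assay, cells in 96-well plates receive the compound at five concentrations for 48 hours. Endpoints are linearly interpolated between the surrounding concentrations. TGI: concentration producing complete growth inhibition.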
Legend:
Assay in all cases: NCI-60 cell line screen, 48 h
786-0 renal = system: 786-0 renal
A498 renal = system: A498 renal
A549 NSCLC = system: A549 NSCLC
ACHN renal = system: ACHN renal
CCRF-CEM leukemia = system: CCRF-CEM leukemia
COLO 205 colon = system: COLO 205 colon
DMS 114 small cell lung = system: DMS 114 small cell lung
DMS 273 small cell lung = system: DMS 273 small cell lung
EKVX NSCLC = system: EKVX NSCLC
HCC-2998 colon = system: HCC-2998 colon
HCT-116 colon = system: HCT-116 colon
HCT-15 colon = system: HCT-15 colon
HL-60(TB) leukemia = system: HL-60(TB) leukemia
HOP-62 NSCLC = system: HOP-62 NSCLC
HT29 colon = system: HT29 colon
IGROV1 ovarian = system: IGROV1 ovarian
K-562 leukemia = system: K-562 leukemia
KM12 colon = system: KM12 colon
KM20L2 colon = system: KM20L2 colon
LXFL 529 NSCLC = system: LXFL 529 NSCLC
M14 melanoma = system: M14 melanoma
M19-MEL melanoma = system: M19-MEL melanoma
MALME-3M melanoma = system: MALME-3M melanoma
MOLT-4 leukemia = system: MOLT-4 leukemia
NCI-H226 lung = system: NCI-H226 lung
NCI-H23 lung = system: NCI-H23 lung
NCI-H460 lung = system: NCI-H460 lung
NCI-H522 lung = system: NCI-H522 lung
OVCAR-3 ovarian = system: OVCAR-3 ovarian
OVCAR-4 ovarian = system: OVCAR-4 ovarian
OVCAR-5 ovarian = system: OVCAR-5 ovarian
OVCAR-8 ovarian = system: OVCAR-8 ovarian
RPMI-8226 leukemia = system: RPMI-8226 leukemia
RXF 393 renal = system: RXF 393 renal
SF-268 CNS = system: SF-268 CNS
SF-295 CNS = system: SF-295 CNS
SF-539 CNS = system: SF-539 CNS
SK-MEL-2 melanoma = system: SK-MEL-2 melanoma
SK-MEL-28 melanoma = system: SK-MEL-28 melanoma
SK-OV-3 ovarian = system: SK-OV-3 ovarian
SN12C renal = system: SN12C renal
SNB-19 CNS = system: SNB-19 CNS
SNB-75 CNS = system: SNB-75 CNS
SR leukemia = system: SR leukemia
SW-620 colon = system: SW-620 colon
TK-10 renal = system: TK-10 renal
U251 CNS = system: U251 CNS
UACC-257 melanoma = system: UACC-257 melanoma
UACC-62 melanoma = system: UACC-62 melanoma
UO-31 renal = system: UO-31 renal

Q: What does the source list for `O=C1C=C(Nc2ccc(Br)cc2)c2ccccc2C1=O`?
A: TGI (786-0 renal): 28.3 µM; TGI (A498 renal): 31 µM; TGI (A549 NSCLC): 32.8 µM; TGI (ACHN renal): 16.2 µM; TGI (CCRF-CEM leukemia): 32.3 µM; TGI (COLO 205 colon): 31 µM; TGI (DMS 114 small cell lung): 18 µM; TGI (DMS 273 small cell lung): 25.7 µM; TGI (EKVX NSCLC): 32.5 µM; TGI (HCC-2998 colon): 28.5 µM; TGI (HCT-116 colon): 26.5 µM; TGI (HCT-15 colon): 18.9 µM; TGI (HL-60(TB) leukemia): 22.4 µM; TGI (HOP-62 NSCLC): 30.7 µM; TGI (HT29 colon): 34 µM; TGI (IGROV1 ovarian): 33.2 µM; TGI (K-562 leukemia): 34 µM; TGI (KM12 colon): 29.6 µM; TGI (KM20L2 colon): 39.3 µM; TGI (LXFL 529 NSCLC): 25.4 µM; TGI (M14 melanoma): 28.8 µM; TGI (M19-MEL melanoma): 3.29 µM; TGI (MALME-3M melanoma): 28.7 µM; TGI (MOLT-4 leukemia): 30.5 µM; TGI (NCI-H226 lung): 38.2 µM; TGI (NCI-H23 lung): 15.3 µM; TGI (NCI-H460 lung): 23.8 µM; TGI (NCI-H522 lung): 25.5 µM; TGI (OVCAR-3 ovarian): 19.7 µM; TGI (OVCAR-4 ovarian): 6.13 µM; TGI (OVCAR-5 ovarian): 35.3 µM; TGI (OVCAR-8 ovarian): 29.3 µM; TGI (RPMI-8226 leukemia): 24.9 µM; TGI (RXF 393 renal): 30.6 µM; TGI (SF-268 CNS): 27.6 µM; TGI (SF-295 CNS): 29.8 µM; TGI (SF-539 CNS): 30.3 µM; TGI (SK-MEL-2 melanoma): 30.1 µM; TGI (SK-MEL-28 melanoma): 31.3 µM; TGI (SK-OV-3 ovarian): 31 µM; TGI (SN12C renal): 29.6 µM; TGI (SNB-19 CNS): 29.2 µM; TGI (SNB-75 CNS): 23.3 µM; TGI (SR leukemia): 16.5 µM; TGI (SW-620 colon): 27.2 µM; TGI (TK-10 renal): 33.8 µM; TGI (U251 CNS): 16 µM; TGI (UACC-257 melanoma): 26.5 µM; TGI (UACC-62 melanoma): 15.3 µM; TGI (UO-31 renal): 29.6 µM

Reference: PubChem BioAssay (NCI)
